Experimental data taken from paper PMC8308784, “Novel Purine Chemotypes with Activity against Plasmodium falciparum and Trypanosoma cruzi” (Pharmaceuticals, 2021).
pIC50: −log10 of the molar value. Where two headings read alike, the source gives them in different places.

Key:
[1] = tested on: T. cruzi Tulahuen strain expressing β-galactosidase; test: T. cruzi primary screening at three fixed concentrations; assay type: cell-based
Description: T. cruzi parasites from the Tulahuen strain (discrete typing unit (DTU) VI) expressing β-galactosidase were maintained in culture by the infection of LLC-MK2 cells in DMEM supplemented with 2% FBS and 1% penicillin–streptomycin–glutamine (PSG), as described in [52]. When free-swimming trypomastigotes were released to the culture medium, they were centrifuged for 7 min at 2500 rpm and allowed to swim out of the pellet. Trypomastigotes were used to maintain the parasite cycle, or for the performance of the antiparasitic assays.
[…] Conditions were tested in triplicate for every concentration. Z-values varied between 0.81 and 0.92 in the different plates analyzed. Selected compounds (34.6% potential hit rate) were further analyzed via standard growth inhibition assays. The Z-values of dose–response assays correlated with those previously reported. For both assays, Vero cells and trypomastigotes from the Tulahuen T. cruzi strain expressing β-galactosidase were harvested, centrifuged, and resuspended in DMEM without phenol red supplemented with 1% PSG, 2% FBS, 1 mM sodium pyruvate, and 25 mM HEPES. Vero cells and trypomastigotes were counted, diluted at a concentration of 1 × 10^6 cells/mL each, and mixed 1:1 (v/v). Then, 100 μL of that mixture was added per well to the plates already containing the compounds. Each well contained 50,000 host cells and 50,000 parasites, i.e., multiplicity of infection (MOI) = 1. BNZ was used as control of maximal drug growth inhibition in each round, whereas each plate contained its own negative control (maximum parasite growth; Vero cells plus parasites without drugs) and positive control (minimum parasite growth; trypomastigote forms alone marking an enzymatic zero time or baseline galactosidase activity). After four days at 37 °C, 50 µL of a PBS solution containing 0.25% NP40 and 500 µM chlorophenol red-β-D-galactopyranoside (CPRG) substrate were added per well [32]. Plates were incubated at 37 °C for 4 h, and their absorbance read out at 590 nm using an Epoch Gene5 spectrophotometer.
(§1) Absorbance values derived from the anti-T. cruzi assays and fluorescence values from the anti-P. falciparum and cell toxicity assays were normalized to the controls. In the primary screening at three fixed doses, the compounds’ inhibitory activity was expressed as a percentage of the negative control (100% parasitic growth). In dose–response assays, the compounds’ IC50 and TC50 values were determined with GraphPad Prism 7 software (version 7.00, 2016), using a non-linear regression analysis model defined by the following equation: Y=100 ÷(1+10^((LogIC50−X)×HillSlope))

[2] = tested on: T. cruzi Tulahuen strain expressing β-galactosidase; test: anti-T. cruzi dose-response growth inhibition assay (Vero cells plus trypomastigotes, CPRG readout); assay type: cell-based; settings: Vero cells plus trypomastigotes, MOI 1, four days, mean (SD), read-out: T. cruzi IC50 a (anti-T. cruzi assay)
Vero cells = test: Vero cell toxicity assay (alamarBlue); assay type: cell-based, green monkey; settings: 4 days; minimum value of the 95% CI, except BNZ (mean (SD))
Description: Human erythrocytes were purified from B+ Rh+ blood samples and maintained at 4 °C in incomplete RPMI medium. Vero (green monkey kidney epithelial cells), LLC-MK2 (Rhesus monkey kidney epithelial cells), and HepG2 (human liver epithelial cells) cultures were cultivated in DMEM supplemented with 1% penicillin–streptomycin (PS) and 10% heat-inactivated fetal bovine serum (FBS) at 37 °C, 5% CO2, and >95% humidity, as described in [31]. HepG2 cells were also supplemented with 10% non-essential amino acids. Vero and MK2 cells were passaged twice per week at 1:12 ratios, while HepG2 cells were passaged at a 1:8 ratio.
Vero and HepG2 cells were detached, centrifuged, and resuspended in DMEM without phenol red. Cell viability was checked upon cell counting with trypan blue staining. Then, Vero and HepG2 cells were diluted at a concentration of 5 × 10^5 and 3.2 × 10^5 cells per mL, respectively, before adding 100 µL per well to the 96-well plate. Each run contained its own negative (untreated cells) and positive (medium alone) controls. Plates were incubated at 37 °C for 4 days in the case of Vero, or 2 in the case of HepG2 cells. Assay readout was made by adding 50 µL per well of a PBS solution containing 10% alamarBlue reagent (Thermo Fisher Scientific); then, plates were incubated for another 6 h at 37 °C, before recording the fluorescence intensity with a Tecan Infinite M Nano+ reader (excitation: 530 nm, emission: 590 nm).
as §1

[3] = tested on: T. cruzi intracellular amastigotes; test: Antiamastigote growth inhibition assay; assay type: cell-based; settings: intracellular amastigotes in Vero cells, mean (SD), read-out: T. cruzi IC50 b (antiamastigote assay)
Description: Vero cells were seeded in T-175 flasks (5 × 10^6 cells per flask) in DMEM supplemented with 1% penicillin–streptomycin and 10% FBS, and cultured for 24 h. Then, cells were washed once with PBS, and free-swimming trypomastigotes (1 × 10^7 trypomastigotes per flask; MOI = 1) in assay medium were added and allowed 18 h to infect. After that, infected cell monolayers were washed with PBS and detached. Cells were counted and diluted to a concentration of 5 × 10^5 cells per mL, before adding 100 µL per well to test plates already containing the drugs dispensed as described above. In all cases, we included BNZ as control drug, and each plate contained its own negative (Vero cells and parasites) and positive (Vero cells) controls.
as §1

[4] = compound at 10 µM, average of at least three independent experiments
[5] = Trypanosoma cruzi, TULAHUEN, 96 h

**Q.** Which results are given for CC(C)(C)n1c(-c2ccccc2)nc2c(OCc3ccccc3)ncnc21 [Compound 6D]?
**A.** Primary screening, growth inhibition values at 10 µM [1, 4]: 84.14; pIC50 [2, 5]: 5.25; Vero Cells TC50 (Vero cells): >150 µM; pIC50 ([3]; Trypanosoma cruzi): 5.42

**Q.** c1ccc(CCn2c(-c3ccccc3)nc3c(OCc4ccccc4)ncnc32)cc1 [Compound 6g] was tested. Which “Primary screening, growth inhibition values at 10 µM” value [1, 4] did it give?
**A.** 87.76

**Q.** And the pIC50 [2]?
**A.** 5.40

**Q.** And the “Vero Cells TC50” value (Vero cells)?
**A.** >150 µM

**Q.** And the pIC50 [3]?
**A.** 4.71

**Q.** Which activity at 100 µM ([1]; Trypanosoma cruzi, TULAHUEN, read-out: Primary screening, growth inhibition values at 100 µM) does the source give for COC(=O)c1ccccc1-n1cc(COc2ncnc3c2nc(-c2ccccc2)n3N(C)C)nn1 [Compound 34] here?
**A.** 13.9%

**Q.** And the activity at 1 µM ([1]; Trypanosoma cruzi, TULAHUEN, compound at 1 µM, average of at least three independent experiments, read-out: Primary screening, growth inhibition values at 1 µM)?
**A.** 68%

**Q.** What about the activity at 10 µM ([1]; Trypanosoma cruzi, TULAHUEN, compound at 10 µM, average of at least three independent experiments, read-out: Primary screening, growth inhibition values at 10 µM) of the same compound?
**A.** 66.9%

**Q.** And the pIC50 [2, 5]?
**A.** 5.39

**Q.** What about the “Vero Cells TC50” value (Vero cells) of the same compound?
**A.** >6000 µM

**Q.** And the pIC50 ([3]; Trypanosoma cruzi)?
**A.** 5.37
